Legend:
[1] = test system: H1993 cells; assay: Sensitization by 5-azacytidine pretreatment, H1993; type: cell-based, human; settings: 500 nM 5-azacytidine for one week
Procedure: (§1) All three resistant cell lines were pre-treated with 500 nM of the demethylating agent 5-azacytidine for one week. Following the 5-azacytidine pretreatment, each resistant cell line was treated with 9 different concentrations (0.01 to 1000 micromolar) of 6-thio-dG for one week. Cells were then evaluation for growth/death.

[2] = test system: H1693; assay: Sensitization by 5-azacytidine pretreatment, H1693; type: cell-based, human; settings: 500 nM 5-azacytidine for one week
Procedure: as §1

[3] = test system: H1819; assay: Sensitization by 5-azacytidine pretreatment, H1819; type: cell-based, human; settings: 500 nM 5-azacytidine for one week
Procedure: as §1

[4] = test system: HCC827; assay: GI 50 determination, HCC827; type: cell-based; settings: Homo sapiens
Procedure: (§2) Cells of each type listed in Table 2 were seeded in chamber slides.

[5] = test system: H2087; assay: GI 50 determination, H2087; type: cell-based; settings: Homo sapiens, NCI-H2087
Procedure: as §2

[6] = test system: HCC2429; assay: GI 50 determination, HCC2429; type: cell-based; settings: Homo sapiens
Procedure: as §2

[7] = test system: A549 human lung cancer cells; assay: Tumor growth in xenograft animal model with A549 cells; type: in vivo, mice; settings: 2.5 mg/kg every day
Procedure: Doses of 2.5 mg/kg of 6-thio-dG and 2.5 mg/kg of 6-thio-G were injected every day into mice after tumor implantation and providing time for tumor initiation. DMSO injections were used for the control. The volume of the tumor was measured.

[8] = test system: HCT116 cells; settings: 1 μM or 10 μM every 3 days, after 10 weeks
Procedure: (§3) For long-term cellular experiments, HCT116 (1,000 cells/cm^2) and BJ (10,000 cells/cm^2) cells were fed with 6-thio-dG (1, 3, 10 μM) containing medium every three days. The cells were counted and replated every week for 10-16 weeks. Additionally, HCT116 cells (1,000 cells/cm^2) were fed with 6-thio-G (1, 3, 10 μM) every three days and each week cells were counted, collected for TRF (Telomere Restriction Fragment) analysis and replated. HCT116 cells, following treatment with 10 μM 6-thio-dG for 12 weeks, were then treated with a combination of 10 μM 6-thio-dG and 3 μM GRN163L for 2-4 weeks.

[9] = test system: BJ cells; assay: Telomere dysfunction induced foci (TIF) assay in normal BJ cells; type: cell-based, human; settings: 10 μM, after 48 hours
Procedure: (§4) TIFs were quantified using Imaris software.
(§5) Normal BJ cells and […] BJ-hTERT cells were seeded in chamber slides. Following cell attachment, 6-thio-dG (10 μM) and 6-thio-G (10 μM) were added to fresh medium of each cell type. […] A control was used for each cell type as well, where DMSO was added to fresh medium of each cell type. […] These include almost all human cancer cells and certain human diseases involving acute and chronic inflammation.

[10] = test system: H2882; assay: GI 50 determination, H2882; type: cell-based; settings: Homo sapiens, NCI-H2882
Procedure: as §2

[11] = test system: A549; assay: GI 50 determination, A549; type: cell-based; settings: Homo sapiens
Procedure: as §2

[12] = test system: BJ fibroblast cells; assay: Telomere length assay (TRF), BJ fibroblasts long-term culture; type: cell-based, human; settings: 10 weeks, compared to untreated control
Procedure: as §3

[13] = test system: HCC515; assay: GI 50 determination, HCC515; type: cell-based; settings: Homo sapiens
Procedure: as §2

[14] = Procedure: Six WT mice were treated with 1.67 mg of 6-thio-dG/kg of body weight daily. Six WT mice were treated with 1.67 mg of 6-thio-G/kg of body weight daily. Six WT mice were treated with 5 mg of 6-thio-dG/kg of body weight daily. Six WT mice were treated with 5 mg of 6-thio-G/kg of body weight daily. The mice were given the appropriate dosage and weighed daily for 25 days.
[15] = test system: BJ; assay: GI 50 determination, BJ; type: cell-based; settings: Homo sapiens; BJ normal cell line
Procedure: as §2

[16] = test system: HCT116; assay: GI 50 determination, HCT116; type: cell-based; settings: Homo sapiens, HCT-116
Procedure: as §2

[17] = test system: HCC15; assay: GI 50 determination, HCC15; type: cell-based; settings: Homo sapiens
Procedure: as §2

[18] = biological target: T1, telomerase (Homo sapiens, UniProt O14746); assay: Telomerase activity by TRAP assay in treated HCT116 cells; type: cell-based; settings: HCT116 cells treated with 1 and 10 μM every 3 days for 12 weeks
T1 construct: endogenous in cells; host or cells: HCT116 human colon cancer cells (lysate)
Procedure: Telomerase activity was measured by the TRAP assay (Telomeric Repeat Amplification Protocol as described in Shay J. W. and Bacchetti S., “A survey of telomerase activity in human cancer,” European Journal of Cancer 1997; 33:787-91.). Briefly, HCT116 cells were treated with 1 or 10 μM 6-thio-dG for 1-12 weeks. 1×10^5 cells were collected and lysed with ice-cold NP-40 lysis buffer (10 mM Tris-HCl pH 8.0, 1.0 mM MgCl2, 1 mM EDTA, 1% NP-40, 0.25 mM sodium deoxycholate, 10% glycerol, 150 mM NaCl, 5 mM β-mercaptoethanol) for 30 min. One microliter cellular lysate for 2500 cells was used for each reaction. Hela cells were used as a positive control and lysis buffer was used as a negative control. Samples were prepared and then the telomerase extension products were amplified using PCR (95° C. for 5 min to inactivate telomerase, then 95° C. for 30 sec, 52° C. for 30 sec, 72° C. for 30 sec; 24 cycles). Samples were run on a 10% non-denaturating acrylamide gel and visualized using a Typhoon PhosphorImager scanner system (Molecular Dynamics, GE Healthcare, Piscataway, NJ) that is capable of reading Cy5 fluorescence.

[19] = test system: BJ-hTERT cells; assay: Telomere dysfunction induced foci (TIF) assay in BJ-hTERT cells; type: cell-based, human; settings: 10 μM, after 48 hours
Procedure: as §4, §5

[20] = test system: HCC4017; assay: GI 50 determination, HCC4017; type: cell-based; settings: Homo sapiens
Procedure: as §2

[21] = test system: H2009; assay: GI 50 determination, H2009; type: cell-based; settings: Homo sapiens, NCI-H2009
Procedure: as §2

T1 sequence (O14746 whole entry): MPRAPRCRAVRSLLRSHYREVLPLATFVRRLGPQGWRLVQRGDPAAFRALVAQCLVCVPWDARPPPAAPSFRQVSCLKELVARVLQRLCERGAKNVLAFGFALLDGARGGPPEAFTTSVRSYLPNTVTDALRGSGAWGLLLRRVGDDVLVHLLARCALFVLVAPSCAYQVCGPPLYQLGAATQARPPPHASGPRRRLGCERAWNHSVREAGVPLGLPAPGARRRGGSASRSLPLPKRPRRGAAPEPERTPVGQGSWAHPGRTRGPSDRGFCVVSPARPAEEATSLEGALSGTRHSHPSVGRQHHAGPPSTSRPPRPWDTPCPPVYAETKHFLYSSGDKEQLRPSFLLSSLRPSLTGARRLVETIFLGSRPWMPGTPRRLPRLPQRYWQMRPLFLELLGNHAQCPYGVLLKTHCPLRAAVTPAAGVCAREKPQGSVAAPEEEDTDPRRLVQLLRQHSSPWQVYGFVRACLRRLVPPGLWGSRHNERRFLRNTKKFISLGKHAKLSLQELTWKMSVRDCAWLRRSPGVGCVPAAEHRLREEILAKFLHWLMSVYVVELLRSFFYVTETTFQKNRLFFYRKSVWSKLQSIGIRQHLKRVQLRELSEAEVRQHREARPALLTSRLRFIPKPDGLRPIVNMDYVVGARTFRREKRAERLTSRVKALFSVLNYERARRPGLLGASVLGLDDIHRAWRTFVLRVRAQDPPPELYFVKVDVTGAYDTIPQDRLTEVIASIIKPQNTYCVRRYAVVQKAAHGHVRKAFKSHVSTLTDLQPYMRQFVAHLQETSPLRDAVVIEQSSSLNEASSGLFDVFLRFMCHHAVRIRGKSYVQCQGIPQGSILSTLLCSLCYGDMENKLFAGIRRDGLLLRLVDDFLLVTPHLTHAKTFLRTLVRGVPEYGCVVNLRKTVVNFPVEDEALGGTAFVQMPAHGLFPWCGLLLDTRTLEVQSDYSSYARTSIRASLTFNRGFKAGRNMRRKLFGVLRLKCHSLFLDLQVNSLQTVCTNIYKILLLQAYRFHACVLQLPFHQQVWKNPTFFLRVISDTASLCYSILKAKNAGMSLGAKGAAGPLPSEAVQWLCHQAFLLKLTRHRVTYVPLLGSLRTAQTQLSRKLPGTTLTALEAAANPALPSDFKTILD
T1 sequence (O60832 whole entry partner): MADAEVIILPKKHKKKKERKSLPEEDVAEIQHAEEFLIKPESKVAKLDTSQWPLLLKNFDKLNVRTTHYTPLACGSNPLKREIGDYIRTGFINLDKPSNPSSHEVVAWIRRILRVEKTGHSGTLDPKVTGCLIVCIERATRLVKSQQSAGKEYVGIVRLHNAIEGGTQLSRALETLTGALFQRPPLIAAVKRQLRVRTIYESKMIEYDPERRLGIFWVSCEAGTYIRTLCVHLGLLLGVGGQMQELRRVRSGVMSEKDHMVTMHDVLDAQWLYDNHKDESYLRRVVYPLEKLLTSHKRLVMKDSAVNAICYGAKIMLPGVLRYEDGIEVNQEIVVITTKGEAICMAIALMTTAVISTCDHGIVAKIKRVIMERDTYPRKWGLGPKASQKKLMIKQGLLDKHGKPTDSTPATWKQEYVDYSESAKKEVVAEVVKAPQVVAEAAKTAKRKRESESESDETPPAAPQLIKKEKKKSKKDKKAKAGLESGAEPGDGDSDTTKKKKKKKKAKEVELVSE
T1 sequence (Q9NY12 whole entry partner): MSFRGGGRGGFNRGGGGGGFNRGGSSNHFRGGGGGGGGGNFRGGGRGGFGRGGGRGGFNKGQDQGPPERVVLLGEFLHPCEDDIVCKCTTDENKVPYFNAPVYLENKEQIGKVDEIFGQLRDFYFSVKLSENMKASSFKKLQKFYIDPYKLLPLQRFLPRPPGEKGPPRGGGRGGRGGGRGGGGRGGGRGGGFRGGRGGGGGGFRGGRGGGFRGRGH
T1 sequence (Q9NX24 whole entry partner): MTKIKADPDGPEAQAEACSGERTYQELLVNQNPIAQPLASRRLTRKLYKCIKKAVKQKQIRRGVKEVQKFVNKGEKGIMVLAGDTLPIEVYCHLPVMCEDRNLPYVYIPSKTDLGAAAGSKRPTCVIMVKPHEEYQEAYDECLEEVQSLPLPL
T1 sequence (Q9NPE3 whole entry partner): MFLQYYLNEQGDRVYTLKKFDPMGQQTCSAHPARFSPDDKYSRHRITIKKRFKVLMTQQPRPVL
T1 sequence (Q9BUR4 whole entry partner): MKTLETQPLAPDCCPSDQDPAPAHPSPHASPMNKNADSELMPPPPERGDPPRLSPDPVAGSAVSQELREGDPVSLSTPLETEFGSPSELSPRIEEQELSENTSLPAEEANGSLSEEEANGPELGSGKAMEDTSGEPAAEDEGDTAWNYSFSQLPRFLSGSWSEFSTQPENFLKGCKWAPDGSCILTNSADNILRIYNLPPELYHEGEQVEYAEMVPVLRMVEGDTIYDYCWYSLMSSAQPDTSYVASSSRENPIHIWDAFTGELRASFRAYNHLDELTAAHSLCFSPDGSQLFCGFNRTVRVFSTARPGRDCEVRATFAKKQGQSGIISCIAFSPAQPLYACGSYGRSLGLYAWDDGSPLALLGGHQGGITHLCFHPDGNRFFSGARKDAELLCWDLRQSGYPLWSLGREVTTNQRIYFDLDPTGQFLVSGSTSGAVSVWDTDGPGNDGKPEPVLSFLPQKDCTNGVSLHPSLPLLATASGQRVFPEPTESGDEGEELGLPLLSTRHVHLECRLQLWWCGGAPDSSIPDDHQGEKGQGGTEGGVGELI

In the case of `Nc1ncn([C@@H]2O[C@H](CO)[C@@H](O)[C@H]2O)c(=O)n1` [5-azacytidine], the “effect of pretreatment on sensitivity to 6-thio-dG” value (“effect of pretreatment” for short) [1] is reported as “did increase sensitivity of the H1993 cells substantially”, the “effect of pretreatment” value [2] is reported as “no effect on the sensitivity” and the “effect of pretreatment” value [3] is reported as “no effect on the sensitivity”.
`Nc1nc2nc[nH]c2c(=S)[nH]1` [6-thio-G, 6-thioguanine, reference compound] gave a GI50 [4] of 1700 nM, a GI50 [5] of 900 nM and a GI50 [6] of 700 nM. For the same compound, the “histology of residual tumors” value [7] was “mostly “healthy” growing cancerous cells”, the “effect on telomere length (TRF)” value [8] was “did not result in any significant effects on telomere length” and the “>4 TIFs per nucleus background subtracted” value [9] was 0. For the same compound, the GI50 [10] was 600 nM, the GI50 [11] was 2300 nM and the “telomere shortening (TRF)” value [12] was “did not show enhanced telomere shortening”. For the same compound, the GI50 [13] was 4.9 µM, the mortality ([14]; WT mice, 5 mg/kg daily) was “all mice died by the 15th day” and the weight loss ([14]; mouse, in vivo, 5 mg/kg) was “around 2 grams”. For the same compound, the GI50 [15] was > 100 µM, the GI50 [16] was 1200 nM and the GI50 [17] was 1100 nM. For the same compound, the “inhibition of telomerase activity (TRAP)” value [18] was “no inhibition of telomerase activity was observed”, the “>4 TIFs per nucleus background subtracted” value [19] was 0 and the GI50 [20] was 2000 nM. It also gave a GI50 [21] of 3.3 µM.

— patent publication US12070472B2, “Treatment of drug resistant proliferative diseases with telomerase mediated telomere altering compounds” (The Board of Regents of the University of Texas System, priority 2016, dated 2024)
